Patent US20250170104A1, “INHIBITORS OF PSEUDOMONAS AERUGINOSA VIRULENCE FACTOR Lasß” (priority 2022, published 2025)
In brackets after ≈: the same amount, converted by molar mass. Like-named read-outs stand apart in the source and are kept apart here.

Tests used:
[1] = target: purified LasB (Pseudomonas aeruginosa (strain ATCC 15692 / DSM 22644 / CIP 104116 / JCM 14847 / LMG 12228 / 1C / PRS 101 / PAO1), UniProt P14756); experiment: Ex vivo lung homogenate assay with purified LasB; type: biochemical
Chain of purified LasB (P14756 198-498): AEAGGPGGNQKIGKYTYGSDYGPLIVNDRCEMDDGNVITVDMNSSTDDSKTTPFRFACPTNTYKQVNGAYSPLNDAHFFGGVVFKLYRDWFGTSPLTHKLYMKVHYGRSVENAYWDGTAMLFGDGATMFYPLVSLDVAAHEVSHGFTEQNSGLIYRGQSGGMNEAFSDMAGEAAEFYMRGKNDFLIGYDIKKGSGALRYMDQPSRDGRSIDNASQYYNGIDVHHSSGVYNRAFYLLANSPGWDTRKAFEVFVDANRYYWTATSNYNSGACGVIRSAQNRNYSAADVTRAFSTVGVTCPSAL
Method: The lung homogenate was prepared from pig lung, which was stored at −80° C. After thawing the lung tissue was cut into pieces of approximately 1.5 cm diameter and 0.5 to 1 cm thickness. Subsequently the bits were flash frozen in liquid nitrogen and lyophilized for 48 h.
1.2 g dried tissue was then ball milled using an IKA Tube Drive and the respective 50 mL ball milling tubes. 20 steel balls were used with target rpm of 6000, reversing the spinning direction every 30 seconds for a total of 10 min. After 10 min the tube was detached and inverted to loosen the powder. The ball milling was repeated with the same setup twice again.
To the powdery tissue 50 mL of a 10 mM Tris buffer including 2 mM CaCl2 with a pH of 8.0 was added and the IKA Tube Drive used again with the same settings as described before for 10 min to disperse the tissue powder in the aqueous buffer. The yielded lung homogenate was pipetted into 15 mL falcons and stored at −80° C. until further use.
To perform the LasB activity/inhibition assay a compound dilution was prepared in DMSO yielding a 100 fold concentration of the final concentration in the assay. LasB was diluted from a higher stock solution to a 6 μM stock in the same buffer as used for the lung homogenate. The assay was performed in Eppis. With a stepper pipette 10 μL of the prepared LasB solution was added to the Eppis to yield a final protein concentration of 300 nM. Then 188 μL of thawed lung homogenate was added with a stepper pipette. Finally, 2 μL of the 100 fold compound dilutions were added and mixed by pipetting up and down. The Eppis were incubated at 37° C. with a shaking speed of 1000 rpm for 4 h.
After 4 h, the Eppis were centrifuged at a speed of 14,000 rpm, 4° C. for 10 min to separate the soluble cleaved Elastin fragments from the non-cleaved insoluble part. 100 μL of the obtained supernatant was transferred to new Eppis, and the same volume of concentrated hydrochloric acid added. […]
Peak areas and response ratios were calculated using Xcalibur Quan browser with Amprolium set as internal standard. […]

[2] = target: LasB (Pseudomonas aeruginosa (strain ATCC 15692 / DSM 22644 / CIP 104116 / JCM 14847 / LMG 12228 / 1C / PRS 101 / PAO1), UniProt P14756); experiment: In vitro LasB activity assay (fluorogenic substrate); type: biochemical; conditions: LasB 0.3 nM, substrate 150 μM, mean ± SD
Chain of LasB (P14756 198-498): as above
Method: The LasB activity assay was performed as described previously (Nishino N, Powers J C. Pseudomonas aeruginosa elastase. Development of a new substrate, inhibitors, and an affinity ligand. J Biol Chem. 1980 Apr. 25; 255(8):3482-6) using the fluorogenic substrate 2-Aminobenzoyl-L-Alanyl-Glycyl-L-Leucyl-L-Alanyl-para-Nitro-Benzyl-Amide, purchased from Peptides International (Louisville, KY, USA) and vivitide, LLC (Gardner, MA, USA).
Fluorescence intensity was measured for 60 min at 37° C. in black 384-well microtiter plates (Greiner BioOne, Kremsmünster, Austria) using a CLARIOstar microplate reader (BMG Labtech, Ortenberg, Germany) with an excitation wavelength of […] and an emission wavelength of 415±20 nm. The assay was performed in a final volume of 50 μL of assay buffer (50 mM Tris, pH 7.2, 2.5 mM CaCl2), 0.075% Pluronic F-127, 5% DMSO) containing LasB at a final concentration of […] 0.3 nM and the substrate at 150 μM. Before substrate addition, compounds were preincubated with the enzyme at 37° C. for 15 min. Experiments were performed in duplicates and repeated for at least two times. Blank controls without enzyme were performed. After blank subtraction, the slope of samples containing inhibitors (v) was divided by the slope of a simultaneously started uninhibited enzymatic reaction (v0). IC50 values were determined with nonlinear regression using GraphPad Prism 5 (Graph Pad Software, San Diego, CA, USA) and are given as mean values ±standard deviation (SD). The slope factor was constrained to 1.

[3] = in vitro; type: in vitro ADME; conditions: mouse, s9
Method: For the evaluation of combined phase I and phase II metabolic stability, the compound (1 μM) was incubated with 1 mg/mL pooled liver S9 fraction (Xenotech), 2 mM NADPH, 1 mM UDPGA, 10 mM MgCl2, 5 mM GSH and 0.1 mM PAPS at 37° C. for 0, 5, 15, 30 and 60 min. The metabolic stability of Testosterone (1 μM), verapamil (1 μM) and ketoconazol (1 μM) were determined in parallel to confirm the enzymatic activity of the S9 fraction. The incubation was stopped by precipitation of S9 enzymes with 2 volumes of cold acetonitrile containing internal standard (150 nM Diphenhydramine). Samples were stored on ice for 10 min and precipitated protein was removed by centrifugation (15 min, 4° C., 4,000 rpm). The remaining test compound at different time points was analyzed by LC-MS/MS (TSQ Quantum Access MAX, Thermo Fisher, Dreieich, Germany) and used to determine half-life (t½).

[4] = Kinetic turbidimetric solubility assay; type: physicochemical; conditions: PBS
Method: The desired compounds were sequentially diluted in DMSO in a 96-well plate. 1.5 μL of each well were transferred into another 96-well plate and mixed with 148.5 μL of PBS. Plates were shaken for 5 min at 600 rpm at room temperature, and the absorbance at 620 nm was measured. Absorbance values were normalized by blank subtraction and plotted using GraphPad Prism 8.4.2 (GraphPad Software, San Diego, CA, USA). Solubility (S) was determined based on the First X value of AUC function using a threshold of 0.005.

[5] = Cytotoxicity assay; type: cell-based; conditions: human
Method: HepG2, HEK293 or A549 cells (2×10^5 cells per well) were seeded in 24-well, flat-bottomed plates. Culturing of cells, incubations, and OD measurements were performed as described previously (Int. J. Cancer 2007, 121, 206-210). Twenty-four hours after seeding the cells, the incubation was started by the addition of test compound in a final DMSO concentration of 1%. The living cell mass was determined after 48 h. At least two independent measurements were performed for each compound.

[6] = target: ADAM-17 (TACE) (Homo sapiens (Human), UniProt P78536); experiment: ADAM-17 (TACE) inhibitor screening assay; type: biochemical; conditions: read-out: Selectivity IC50 TACE
Chain of ADAM-17 (TACE) (P78536 whole entry, looked up): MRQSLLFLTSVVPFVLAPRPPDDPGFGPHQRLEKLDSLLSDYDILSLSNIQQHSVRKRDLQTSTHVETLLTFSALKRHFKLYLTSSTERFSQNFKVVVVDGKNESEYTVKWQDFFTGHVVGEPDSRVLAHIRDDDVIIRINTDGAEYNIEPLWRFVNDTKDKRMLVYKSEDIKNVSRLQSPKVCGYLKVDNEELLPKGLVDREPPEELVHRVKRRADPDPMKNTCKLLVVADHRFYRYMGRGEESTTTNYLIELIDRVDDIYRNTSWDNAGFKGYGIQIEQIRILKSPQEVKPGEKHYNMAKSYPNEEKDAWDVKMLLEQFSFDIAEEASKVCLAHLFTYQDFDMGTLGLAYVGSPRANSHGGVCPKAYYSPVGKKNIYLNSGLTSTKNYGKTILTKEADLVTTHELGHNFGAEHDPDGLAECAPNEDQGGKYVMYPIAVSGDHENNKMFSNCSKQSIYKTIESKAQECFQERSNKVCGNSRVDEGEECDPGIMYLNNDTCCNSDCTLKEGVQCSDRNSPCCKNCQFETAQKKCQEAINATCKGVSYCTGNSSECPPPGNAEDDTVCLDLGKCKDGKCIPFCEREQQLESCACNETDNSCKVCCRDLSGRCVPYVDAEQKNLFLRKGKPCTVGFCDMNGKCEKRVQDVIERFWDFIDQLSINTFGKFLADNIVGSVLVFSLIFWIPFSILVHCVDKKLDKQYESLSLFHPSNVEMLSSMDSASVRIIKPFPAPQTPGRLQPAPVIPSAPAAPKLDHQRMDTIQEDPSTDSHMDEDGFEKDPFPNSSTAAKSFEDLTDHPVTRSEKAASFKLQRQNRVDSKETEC
Method: The ADAM-17 (TACE) Inhibitor Screening Assay Kit was purchased from Sigma-Aldrich. The assay was performed according to the guidelines of the manufacturer using ilomastat as a positive control. Fluorescence signals were measured in a CLARIOstar plate reader (BMG Labtech).

[7] = target: HDAC8 (Homo sapiens (Human), UniProt Q9BY41); experiment: HDAC inhibition; type: biochemical; conditions: read-out: Selectivity IC50 HDAC8
Method: (§1) HDAC3 and HDAC8 Inhibitor Screening Assay kits were purchased from Sigma-Aldrich. The assay was performed according to the guidelines of the manufacturer using trichostatin as a positive control. Fluorescence signals were measured in a CLARIOstar plate reader (BMG Labtech).

[8] = target: HDAC3 (Homo sapiens (Human), UniProt O15379); experiment: HDAC inhibition; type: biochemical; conditions: read-out: Selectivity IC50 HDAC3
Chain of HDAC3 (O15379 whole entry, looked up): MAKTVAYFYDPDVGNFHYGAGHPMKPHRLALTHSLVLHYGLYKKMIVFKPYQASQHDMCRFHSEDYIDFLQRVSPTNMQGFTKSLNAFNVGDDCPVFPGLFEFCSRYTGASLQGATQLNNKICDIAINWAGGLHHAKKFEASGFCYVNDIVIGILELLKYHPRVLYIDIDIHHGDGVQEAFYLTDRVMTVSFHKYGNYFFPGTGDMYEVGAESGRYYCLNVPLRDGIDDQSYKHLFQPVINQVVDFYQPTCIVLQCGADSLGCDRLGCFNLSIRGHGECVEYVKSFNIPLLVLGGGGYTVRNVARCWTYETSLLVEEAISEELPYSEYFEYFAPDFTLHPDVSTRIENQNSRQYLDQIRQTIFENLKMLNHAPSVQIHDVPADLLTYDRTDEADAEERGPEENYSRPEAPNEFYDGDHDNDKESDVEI
Chain of HDAC3 (Q9Y618 whole entry partner, looked up): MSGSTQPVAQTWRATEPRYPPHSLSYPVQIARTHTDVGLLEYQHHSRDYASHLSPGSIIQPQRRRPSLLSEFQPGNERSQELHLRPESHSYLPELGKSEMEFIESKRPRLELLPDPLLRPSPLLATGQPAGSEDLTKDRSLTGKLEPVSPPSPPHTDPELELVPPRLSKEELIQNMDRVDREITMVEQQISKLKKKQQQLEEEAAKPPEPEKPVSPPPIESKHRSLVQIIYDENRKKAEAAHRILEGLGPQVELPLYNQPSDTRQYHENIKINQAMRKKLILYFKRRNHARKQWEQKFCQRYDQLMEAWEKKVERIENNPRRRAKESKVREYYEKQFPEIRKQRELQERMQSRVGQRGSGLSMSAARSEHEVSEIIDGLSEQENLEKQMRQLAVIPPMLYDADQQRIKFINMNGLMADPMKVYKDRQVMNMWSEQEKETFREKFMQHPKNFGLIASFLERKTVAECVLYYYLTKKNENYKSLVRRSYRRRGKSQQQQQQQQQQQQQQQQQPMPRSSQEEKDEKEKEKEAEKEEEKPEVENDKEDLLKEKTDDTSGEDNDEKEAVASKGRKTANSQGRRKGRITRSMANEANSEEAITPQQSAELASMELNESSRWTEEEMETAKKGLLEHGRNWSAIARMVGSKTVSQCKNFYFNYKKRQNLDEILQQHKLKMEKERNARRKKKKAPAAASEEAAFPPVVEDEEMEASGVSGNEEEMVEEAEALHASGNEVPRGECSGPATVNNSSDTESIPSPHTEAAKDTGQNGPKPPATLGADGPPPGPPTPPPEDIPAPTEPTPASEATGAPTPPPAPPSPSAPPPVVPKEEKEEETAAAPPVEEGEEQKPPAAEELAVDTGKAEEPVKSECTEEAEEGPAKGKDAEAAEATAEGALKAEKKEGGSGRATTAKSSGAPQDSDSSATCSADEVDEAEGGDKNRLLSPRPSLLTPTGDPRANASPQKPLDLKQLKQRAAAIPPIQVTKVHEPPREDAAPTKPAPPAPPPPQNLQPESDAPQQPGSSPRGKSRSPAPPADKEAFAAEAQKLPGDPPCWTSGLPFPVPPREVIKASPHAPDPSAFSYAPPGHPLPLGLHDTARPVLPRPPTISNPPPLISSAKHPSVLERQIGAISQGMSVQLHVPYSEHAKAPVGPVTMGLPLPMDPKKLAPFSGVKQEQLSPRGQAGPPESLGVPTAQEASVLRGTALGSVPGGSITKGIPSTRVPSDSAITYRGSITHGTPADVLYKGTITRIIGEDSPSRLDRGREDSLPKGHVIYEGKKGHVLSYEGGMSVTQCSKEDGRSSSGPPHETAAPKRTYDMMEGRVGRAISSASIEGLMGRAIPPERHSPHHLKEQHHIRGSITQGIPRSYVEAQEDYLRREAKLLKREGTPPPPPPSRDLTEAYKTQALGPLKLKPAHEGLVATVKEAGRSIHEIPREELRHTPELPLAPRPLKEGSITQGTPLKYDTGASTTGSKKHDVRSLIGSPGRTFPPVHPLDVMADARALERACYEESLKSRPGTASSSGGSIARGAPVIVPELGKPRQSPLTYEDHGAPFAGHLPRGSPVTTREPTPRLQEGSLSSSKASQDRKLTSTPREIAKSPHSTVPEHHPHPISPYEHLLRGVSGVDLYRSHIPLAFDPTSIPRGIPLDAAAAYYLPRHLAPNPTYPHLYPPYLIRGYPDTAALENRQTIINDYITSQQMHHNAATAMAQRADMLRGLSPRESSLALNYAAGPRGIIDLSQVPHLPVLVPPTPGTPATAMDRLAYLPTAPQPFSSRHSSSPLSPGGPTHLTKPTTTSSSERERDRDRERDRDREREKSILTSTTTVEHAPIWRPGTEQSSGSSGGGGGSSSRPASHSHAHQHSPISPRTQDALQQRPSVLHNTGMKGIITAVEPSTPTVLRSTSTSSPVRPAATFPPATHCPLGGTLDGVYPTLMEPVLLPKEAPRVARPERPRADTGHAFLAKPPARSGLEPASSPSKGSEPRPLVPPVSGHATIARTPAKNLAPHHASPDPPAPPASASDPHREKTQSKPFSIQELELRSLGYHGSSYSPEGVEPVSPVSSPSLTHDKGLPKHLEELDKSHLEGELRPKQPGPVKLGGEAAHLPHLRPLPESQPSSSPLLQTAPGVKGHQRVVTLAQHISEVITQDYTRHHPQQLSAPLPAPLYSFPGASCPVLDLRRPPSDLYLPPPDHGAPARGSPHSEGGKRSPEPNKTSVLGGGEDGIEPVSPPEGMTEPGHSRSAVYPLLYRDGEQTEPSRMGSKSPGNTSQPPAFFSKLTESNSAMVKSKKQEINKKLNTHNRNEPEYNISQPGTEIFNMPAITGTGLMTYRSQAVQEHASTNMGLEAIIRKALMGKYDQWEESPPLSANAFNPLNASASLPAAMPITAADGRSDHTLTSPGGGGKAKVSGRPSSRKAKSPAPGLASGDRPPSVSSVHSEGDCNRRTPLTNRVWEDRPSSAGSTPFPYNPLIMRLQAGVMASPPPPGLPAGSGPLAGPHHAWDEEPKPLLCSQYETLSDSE
Method: as §1

[9] = target: MMP2 (Homo sapiens (Human), UniProt P08253); experiment: Selectivity assay: inhibition of MMPs; type: biochemical
Method: (§2) MMPs-1, -2, -3, -7, -8 and -14 along with the SensoLyte 520 Generic MMP Activity Kit*Fluorimetric* were purchased from AnaSpec (Fremont, CA, USA). The assay was performed as described previously (Schönauer E, Kany A M, Haupenthal J, Hüsecken K, Hoppe I J, Voos K, et al. Discovery of a Potent Inhibitor Class with High Selectivity toward Clostridial Collagenases. J Am Chem Soc. 2017 Sep. 13; 139(36):12696-703) using batimastat as a positive control according to the guidelines of the manufacturer.

[10] = target: MMP1 (Homo sapiens (Human), UniProt P03956); experiment: Selectivity assay: inhibition of MMPs; type: biochemical
Chain of MMP1 (P03956 100-469): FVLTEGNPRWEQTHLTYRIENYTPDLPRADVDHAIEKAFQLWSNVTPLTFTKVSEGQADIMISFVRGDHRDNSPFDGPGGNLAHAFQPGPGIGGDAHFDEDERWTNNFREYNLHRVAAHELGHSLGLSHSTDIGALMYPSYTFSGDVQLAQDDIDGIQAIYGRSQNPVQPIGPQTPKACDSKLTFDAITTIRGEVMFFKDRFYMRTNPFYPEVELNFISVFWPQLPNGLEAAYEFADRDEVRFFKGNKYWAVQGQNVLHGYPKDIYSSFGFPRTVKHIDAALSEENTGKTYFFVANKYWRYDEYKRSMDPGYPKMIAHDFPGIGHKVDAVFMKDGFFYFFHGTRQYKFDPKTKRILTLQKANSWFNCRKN
Method: as §2

[11] = target: MMP3 (Homo sapiens (Human), UniProt P08254); experiment: Selectivity assay: inhibition of MMPs; type: biochemical
Method: as §2

[12] = test system: P. aeruginosa PA-14; experiment: MIC determination assay / antibacterial activity; type: cell-based; conditions: Pseudomonas aeruginosa, PA14
Method: Assays regarding the determination of the minimum inhibitory concentration (MIC) were performed as described previously (Elgaher W A M, Fruth M, Groh M, Haupenthal J, Hartmann R W. Expanding the scaffold for bacterial RNA polymerase inhibitors: design, synthesis and structure-activity relationships of ureido-heterocyclic-carboxylic acids. RSC Adv. 2013 Dec. 3; 4(5):2177-94). The experiments were based on the P. aeruginosa strain PA14. For the case that no MIC value could be determined due to activity reasons, percentage (%) inhibition at 100 μM (or lower, depending on the solubility of the compounds) was calculated. The OD600 was measured 0 and 16 h after inhibitor addition in a CLARIOstar Platereader (BMG Labtech, Ortenberg, Germany).

[13] = aqueous buffer, kinetic from dmso stock

SMILES	IC50 ([1]; pig lung homogenate, 300 nM LasB, 4 h, desmosine LC-MSMS, read-out: IC50 ex vivo lung homogenate)	IC50 [2]	half-life at 1 μM [3]	IC50 [1]	solubility at 5 min [4, 13]	IC50 at 48 h ([5]; A549 cells)	IC50 at 48 h ([5]; HEK293 cells)	IC50 at 48 h ([5]; HepG2 cells)	IC50 [6]	IC50 [7]	IC50 [8]	solubility at 5 min [4]	IC50 [9]	IC50 [10]	IC50 [11]	IC50 [12]
CC(C)C(C(=O)NO)C(=O)Nc1ccc(Cn2cc(CNS(=O)(=O)c3ccc(I)cc3)nn2)cc1 (centres unmarked) [Compound 182, 2-(Hydroxycarbamoyl)-N-[4-[[4-[[(4-iodophenyl)sulfonylamino]methyl]triazol-1-yl]methyl]phenyl]-3-methyl-butanamide]	0.127 µM	0.0019 ± 0.0001 µM														
CC(C)CC(C(=O)NO)C(=O)Nc1ccc(Cn2cc(CNS(=O)(=O)c3ccc(Cl)cc3)nn2)cc1 (centres unmarked) [Compound 161, N-[4-[[4-[[(4-Chlorophenyl)sulfonylamino]methyl]triazol-1-yl]methyl]phenyl]-2-(hydroxycarbamoyl)-4-methyl-pentanamide]		0.0017 ± 0.0001 µM	33.9 ± 1 min	0.186 µM	> 200 µM											
CC(C)CC(C(=O)NO)C(=O)Nc1ccc(Cn2cc(CNS(=O)(=O)c3ccc(I)cc3)nn2)cc1 (centres unmarked) [Hit L1, 2-(Hydroxycarbamoyl)-N-[4-[[4-[[(4-iodophenyl)sulfonylamino]methyl]triazol-1-yl]methyl]phenyl]-4-methyl-pentanamide]		0.0024 ± 0.0001 µM	30.1 ± 1.5 min		106 ± 19 µM (≈ 66.4 µg/mL)	> 100 µM	> 100 µM	> 100 µM	> 100 µM	> 100 µM	> 100 µM	142 µM (≈ 89 µg/mL)	> 100 µM	> 100 µM	> 100 µM	> 100 µM
